Reference: US20160095823A1, “METHODS OF USING PROPOFOL DERIVATIVES FOR ANALGESIA” (priority 2005, published 2016)
Where “and” joins values, the source holds several entries; their conditions need not be identical. Identical values can stand only once.

Columns and labels:
native glycine receptors = assay: Rat in vitro spinal cord preparation (sIPSCs, tonic conductance); conditions: 100 nM-1 μM, preliminary experiments
[1] = target: T1, α-subunits of glycine receptors from the rat coexpressed with human β subunits (Rattus norvegicus, UniProt P07727); assay: Example 2: co-activation of the current response to 10 μM glycine, whole-cell mode, HEK293 cells; format: cell-based
T1 construct: expressed in transfected cells; host or cells: HEK293
Description: (§1) Small cells were studied in the whole-cell mode using an ultra-fast application device.
The results presented in FIG. 10 were corroborated by repeating the tests carried out to provide the data shown in FIG. 10 to provide the data shown in FIG. 11. […] Note from FIGS. 10 and 11 that the co-activating effect is observed in the concentration range between […]. The co-activating effect is overridden by inhibitory effects at higher concentrations (≧1000 μM). […] Small cells were studied in the whole-cell mode using an ultra-fast application device.

Xenopus laevis embryos [2] = assay: Fictive swimming in immobilized stage 37/8 Xenopus embryos (ventral root recording); format: in vivo
Excerpt: The rhythmic swimming behaviour of Xenopus laevis frog embryos (FIG. 22A) is recognised as a powerful model system for exploring spinal neural networks controlling locomotion. The intensity, frequency and duration of swimming episodes are regulated by two inhibitory pathways: a descending brainstem GABA pathway that turns off swimming and a spinal glycinergic pathway that controls the cycle periods attained during swimming.
In the present study Xenopus embryos were used to test the action of 4-chloropropofol (a compound according to the first aspect of the invention) upon fictive swimming in immobilized embryos.
Stage 37/8 embryos (FIG. 22Ai) were immobilized in α-bungarotoxin, secured on a Sylgard block mounted in a recording chamber and recirculated with frog ringer. The flank skin on the left and right sides of the trunk was removed to expose the inter-myotomal clefts wherein lie the ventral roots and then three glass suction electrodes were positioned at rostral and caudal levels on the left side and rostrally on the right side (FIG. 22Aiii) to record “fictive” swimming (FIG. 22B). Swimming activity was evoked by a brief 1 msec current pulse applied to the tail skin via a fourth glass suction electrode. Drugs were applied directly to the bath.

[3] = target: T2, recombinant glycine alpha1 receptors (Homo sapiens, UniProt P23415); assay: Glycine (EC10)-evoked current in Xenopus oocytes; format: cell-based; conditions: 100 nM, preliminary experiments
T2 construct: expressed in transfected cells; host or cells: Xenopus oocytes
T2 sequence (P23415 29-457): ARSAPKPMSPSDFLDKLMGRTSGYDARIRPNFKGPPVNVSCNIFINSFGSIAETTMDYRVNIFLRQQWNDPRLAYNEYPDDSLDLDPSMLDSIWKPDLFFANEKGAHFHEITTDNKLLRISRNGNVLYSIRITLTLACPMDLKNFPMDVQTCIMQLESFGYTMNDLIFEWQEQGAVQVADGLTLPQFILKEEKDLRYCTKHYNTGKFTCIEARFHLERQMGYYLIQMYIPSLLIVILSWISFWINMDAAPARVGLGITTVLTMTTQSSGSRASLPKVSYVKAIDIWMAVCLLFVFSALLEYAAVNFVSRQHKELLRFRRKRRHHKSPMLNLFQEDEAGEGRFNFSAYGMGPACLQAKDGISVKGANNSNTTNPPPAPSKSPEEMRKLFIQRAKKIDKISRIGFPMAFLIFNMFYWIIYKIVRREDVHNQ

[4] = target: T1, α-subunits of glycine receptors from the rat coexpressed with human β subunits; assay: Example 2: direct activation in the absence of glycine, whole-cell mode, HEK293 cells; format: cell-based
Excerpt: as §1
The solid line is a Hill fit to the data with the indicated parameters. Note that the direct activating effect is observed at 1000-fold higher concentrations than the co-activating effect.

Xenopus laevis embryos [5] = conditions: cited from earlier work
glycine receptors = conditions: reported; cited from earlier work
[6] = 10 μM in the presence of 1 μM strychnine
[7] = 10 μM in the presence of 1 μM strychnine, pooled n=3
[8] = 10 μM in the presence of 40 μM bicuculline methiodide
[9] = wash after 10 μM in 1 μM strychnine
[10] = wash after 10 μM in 40 μM bicuculline methiodide

T1 sequence (P07727 29-457): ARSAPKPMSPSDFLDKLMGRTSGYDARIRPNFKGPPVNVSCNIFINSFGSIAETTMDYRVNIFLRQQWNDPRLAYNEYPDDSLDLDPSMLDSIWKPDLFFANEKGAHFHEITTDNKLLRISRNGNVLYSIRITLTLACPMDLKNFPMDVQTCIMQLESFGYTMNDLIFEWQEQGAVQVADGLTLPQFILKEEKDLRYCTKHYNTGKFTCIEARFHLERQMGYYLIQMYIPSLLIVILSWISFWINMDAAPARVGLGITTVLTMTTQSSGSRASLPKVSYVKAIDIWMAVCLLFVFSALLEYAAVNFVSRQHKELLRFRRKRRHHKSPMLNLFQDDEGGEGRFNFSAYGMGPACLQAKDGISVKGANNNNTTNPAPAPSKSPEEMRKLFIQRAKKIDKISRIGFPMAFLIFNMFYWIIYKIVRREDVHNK
T1 sequence (P48167 23-497 partner): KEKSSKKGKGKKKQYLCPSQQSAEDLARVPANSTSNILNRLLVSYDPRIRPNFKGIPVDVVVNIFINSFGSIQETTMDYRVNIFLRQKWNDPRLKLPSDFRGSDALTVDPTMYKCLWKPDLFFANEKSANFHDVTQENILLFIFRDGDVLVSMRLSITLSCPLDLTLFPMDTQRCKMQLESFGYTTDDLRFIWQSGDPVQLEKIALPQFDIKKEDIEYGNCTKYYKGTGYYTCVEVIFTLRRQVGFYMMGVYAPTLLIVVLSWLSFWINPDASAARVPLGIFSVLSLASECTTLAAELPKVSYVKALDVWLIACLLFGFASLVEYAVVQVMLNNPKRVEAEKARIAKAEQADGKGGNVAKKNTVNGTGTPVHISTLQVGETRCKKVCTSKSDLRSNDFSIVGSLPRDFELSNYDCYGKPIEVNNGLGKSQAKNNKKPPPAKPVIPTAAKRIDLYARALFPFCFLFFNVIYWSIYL

CC(C)c1cc(Cl)cc(C(C)C)c1O [4-chloropropofol, 4-chloro-2,6 di-isopropylphenol]
effect on sIPSCs (mediated by synaptic glycine receptors) (native glycine receptors): prolongation | effect on tonic conductance (mediated by extrasynaptic glycine receptors) (native glycine receptors): increase | EC50 values in the presence of glycine (co-activation) ([1]; Example 2): single-digit nanomolar range | concentrations above which peak current amplitude declines (probable open channel block) ([1]; co-applied with 10 μM glycine): above 10 μM | concentrations at which the co-activating effect is overridden by inhibitory effects ([1]; co-applied with 10 μM glycine): ≥ 1000 µM | enhancement of glycine receptor function / EC50 for co-activation, fold lower concentrations than propofol ([1]; glycine receptors heterologously expressed in HEK293 cells): 1000 fold | change in episode duration (Xenopus laevis embryos [2]; 10 μM alone): no significant change | increase in left-right delay (Xenopus laevis embryos [2]; 10 μM alone): 19% | increase in rostro-caudal delay (Xenopus laevis embryos [2]; 10 μM alone): 8% | increase in cycle periods (Xenopus laevis embryos [2]; 10 μM alone, pooled from 5 experiments): approximately 20% | decrease in cycle periods at the end of the episode (Xenopus laevis embryos [2]; [6]): 3.4 ms | decrease in episode duration (Xenopus laevis embryos [2]; [6]): 17 s | increase in cycle periods at the start of the episode (Xenopus laevis embryos [2]; [6]): 0.5 ms | decrease in cycle periods (not significant) (Xenopus laevis embryos [2]; [7]): less than 2% | effect on episode duration (Xenopus laevis embryos [2]; [7]): little or no effect | effect on left-right delay (Xenopus laevis embryos [2]; [7]): little or no effect | increase in cycle periods at the end of the episode (Xenopus laevis embryos [2]; [8]): 20.3 ms | increase in cycle periods at the start of the episode (Xenopus laevis embryos [2]; [8]): 8.2 ms | increase in episode duration (Xenopus laevis embryos [2]; [8]): 2 s | average cycle period (Xenopus laevis embryos [2]; 20 minutes after addition of 10 μM 4-chloropropofol in bicuculline): 61.3 ms | reversal of effect on cycle period by saline wash (Xenopus laevis embryos [2]; after 10 μM alone): 25-30% | reversal of effect on left-right delay by saline wash (Xenopus laevis embryos [2]; after 10 μM alone): 22% | reversal of effect on rostro-caudal delay by saline wash (Xenopus laevis embryos [2]; after 10 μM alone): 12% | average cycle period (Xenopus laevis embryos [2]; after bicuculline methiodide wash): 54.5 ms | effect at the GABAA receptor (Xenopus laevis embryos [2]; at 1004 (so in the source)): negligible effect | influence on glycine receptors (Xenopus laevis embryos [2]; at the same concentration): powerful influence | change in rostro-caudal delay (Xenopus laevis embryos [2]; in the presence of 1 μM strychnine): small increase | change in rostro-caudal delay (Xenopus laevis embryos [2]; in the presence of 40 μM bicuculline methiodide): clear decrease | decrease in cycle periods at the end of the episode by strychnine wash (Xenopus laevis embryos [2]; [9]): 5.4 ms | decrease in cycle periods at the start of the episode by strychnine wash (Xenopus laevis embryos [2]; [9]): 3 ms | increase in episode duration by strychnine wash (Xenopus laevis embryos [2]; [9]): 2 s | further decrease in cycle periods by the strychnine wash (Xenopus laevis embryos [2]; wash after 10 μM in 1 μM strychnine, pooled n=3): 3% and 1% | further increase of cycle periods at the end of the episode after bicuculline wash (Xenopus laevis embryos [2]; [10]): 6.5 ms | reduction of cycle period at the start of the episode by bicuculline wash (Xenopus laevis embryos [2]; [10]): 2 ms | reduction of episode duration by bicuculline wash (Xenopus laevis embryos [2]; [10]): 2 s | effect on glycine (EC10)-evoked current [3]: greatly enhanced | EC50 values in the absence of the natural transmitter glycine ([4]; Example 2): single-digit micromolar range | direct activating effect, fold higher concentrations than the co-activating effect ([4]; absence of glycine versus 10 μM glycine): 1000 fold

CC(C)c1cccc(C(C)C)c1O [propofol, 2,6-di-isopropylphenol]
concentration affecting swimming via potentiation of the glycine receptor (Xenopus laevis embryos [5]; higher concentrations): 40 µM | concentration inhibiting swimming via actions at the GABAA receptor (Xenopus laevis embryos [5]; low concentration): 10 µM | activation of glycine receptors, fold higher concentrations than EC50 at GABAA receptors (glycine receptors): 10 fold
